Results taken from ChEMBL document CHEMBL1131307, “Novel nonnucleoside inhibitors of HIV-1 reverse transcriptase. 8. 8-Aryloxymethyl- and 8-arylthiomethyldipyridodiazepinones” (J Med Chem, 1998).

What was measured:
[1] = species: Homo sapiens; assay: (§1) In vitro metabolism in human liver microsomes
[2] = target: Human immunodeficiency virus type 1 reverse transcriptase (Human immunodeficiency virus 1, UniProt Q72547); assay: Inhibitory activity against HIV-1 wild-type reverse transcriptase.
[3] = target: Human immunodeficiency virus type 1 reverse transcriptase (Human immunodeficiency virus 1, UniProt Q72547, K103N); assay: Inhibitory activity against HIV-1 Mutant Reverse transcriptase K103N
[4] = target: Human immunodeficiency virus type 1 reverse transcriptase (Human immunodeficiency virus 1, UniProt Q72547, Y181C); assay: Inhibitory activity against HIV-1 Y181C reverse transcriptase.
[5] = Compound was tested for its toxicity by using MTT toxicity assay.
[6] = test system: C8166; assay: (§2) Inhibitory activity against HIV-1 IIIB replication in C8166 cells.; type: functional, cell-based; conditions: Homo sapiens
[7] = test system: C8166; assay: as §2; type: functional; conditions: Homo sapiens
[8] = target: Human immunodeficiency virus type 1 reverse transcriptase (Human immunodeficiency virus 1, UniProt Q72547, Y188L); assay: Inhibitory activity against HIV-1 Y188L reverse transcriptase.
[9] = test system: Human immunodeficiency virus type 1 reverse transcriptase (Human immunodeficiency virus 1), Q72547 [Y181C]; assay: Inhibitory activity against HIV-1 Y181C reverse transcriptase at 1 uM concentration
[10] = test system: Human immunodeficiency virus type 1 reverse transcriptase (Human immunodeficiency virus 1), Q72547 [R221A]; assay: Inhibitory activity against HIV-1 Y188L reverse transcriptase at 1 uM concentration
[11] = species: Homo sapiens; assay: as §1; type: ADME
[12] = target: Human immunodeficiency virus type 1 reverse transcriptase (Human immunodeficiency virus 1) (UniProt Q72547); assay: Inhibitory activity against HIV-1 wild-type reverse transcriptase at 1 uM concentration
[13] = test system: Human immunodeficiency virus type 1 reverse transcriptase (Human immunodeficiency virus 1), Q72547 [R221A]; assay: Inhibitory activity against HIV-1 Y188L reverse transcriptase t 1 uM concentration

CCN1c2ncc(COc3ccncc3)cc2C(=O)N(C)c2ccc(F)nc21
Metabolism [1]: 41 pmol/min/mg
IC50 [2]: 0.05 µM
IC50 [3]: 0.04 µM
IC50 [4]: 0.19 µM
CC30 [5]: 160 µM

CCN1c2ncc(CSc3ccccc3)cc2C(=O)N(C)c2ccc(Cl)nc21
Metabolism [1]: 554 pmol/min/mg
IC50 [6]: 0.005 µM
IC90 [7]: 0.013 µM
IC50 [8]: 0.03 µM
IC50 [2]: 0.02 µM
IC50 [3]: 0.03 µM
IC50 [4]: 0.01 µM
CC30 [5]: > 60 µM

CCN1c2ncc(COc3ccncc3)cc2C(=O)N(C)c2cccnc21
IC50 [8]: 5.52 µM
IC50 [2]: 0.02 µM
IC50 [3]: 0.05 µM
IC50 [4]: 0.14 µM
CC30 [5]: > 256 µM

CCN1c2ncc(CSc3[nH]cnc4nncc3-4)cc2C(=O)N(C)c2ccc(Cl)nc21
Metabolism [1]: 336 pmol/min/mg
IC50 [8]: 0.12 µM
IC50 [2]: 0.05 µM
IC50 [4]: 0.07 µM
CC30 [5]: 40 µM

CCN1c2ncc(COc3cccnc3)cc2C(=O)N(C)c2ccc(Cl)nc21
IC50 [2]: 0.19 µM
IC50 [4]: 0.26 µM

CCN1c2ncc(COc3ccnc(C)c3)cc2C(=O)N(C)c2ccc(Cl)nc21
IC50 [8]: 0.23 µM
IC50 [2]: 0.03 µM
IC50 [4]: 0.03 µM

CCN1c2ncc(CSc3ccncc3)cc2C(=O)N(C)c2ccc(Cl)nc21
Metabolism [1]: 372 pmol/min/mg
IC50 [2]: 0.02 µM
IC50 [4]: 0.05 µM

CCN1c2ncc(COc3cc[n+]([O-])cc3)cc2C(=O)N(C)c2ccc(Cl)nc21
inhibition [9]: 39%
IC50 [2]: 0.23 µM
inhibition [10]: 0%

CCN1c2ncc(COc3cccc(N)c3)cc2C(=O)N(C)c2ccc(Cl)nc21
IC50 [6]: 0.019 µM
IC90 [7]: 0.036 µM
IC50 [8]: 0.37 µM
IC50 [2]: 0.05 µM
IC50 [4]: 0.1 µM

CCN1c2ncc(COc3ccc(O)cc3)cc2C(=O)N(C)c2ccc(Cl)nc21
inhibition [9]: 27%
IC50 [2]: 0.21 µM
inhibition [10]: 21%

CCN1c2ncc(COc3cccc4[nH]ccc34)cc2C(=O)N(C)c2ccc(Cl)nc21
Metabolism [1]: 208 pmol/min/mg
IC50 [8]: 1.36 µM
IC50 [2]: 0.33 µM
IC50 [4]: 0.2 µM
CC30 [5]: > 30 µM

CCN1c2ncc(CNc3ccccc3)cc2C(=O)N(C)c2ccc(Cl)nc21
IC50 [2]: 0.08 µM
IC50 [3]: 0.05 µM
IC50 [4]: 0.37 µM
CC30 [5]: > 60 µM

CCN1c2ncc(C[S+]([O-])c3ccccc3)cc2C(=O)N(C)c2ccc(Cl)nc21 (configuration not stated)
IC50 [8]: 2.42 µM
IC50 [2]: 0.07 µM
IC50 [4]: 0.14 µM
CC30 [5]: 45 µM

CCN1c2ncc(COc3cccc(C(N)=O)c3)cc2C(=O)N(C)c2ccc(Cl)nc21
Metabolism [1]: 292 pmol/min/mg
IC50 [8]: 0.34 µM
IC50 [2]: 0.03 µM
IC50 [4]: 0.28 µM
CC30 [5]: 130 µM

CCN1c2ncc(COc3cc[n+]([O-])cc3)cc2C(=O)N(C)c2ccc(F)nc21
inhibition [10]: 31%

CCN1c2ncc(CS(=O)(=O)c3ccccc3)cc2C(=O)N(C)c2ccc(Cl)nc21
Metabolism [1]: 322 pmol/min/mg
IC50 [8]: 11 µM
IC50 [2]: 0.1 µM
IC50 [4]: 0.06 µM

CCN1c2ncc(CCc3ccccc3)cc2C(=O)N(C)c2ccc(Cl)nc21
Metabolism [1]: 288 pmol/min/mg
IC50 [8]: 0.96 µM
IC50 [2]: 0.05 µM
IC50 [3]: 0.05 µM
IC50 [4]: 0.15 µM

CCN1c2ncc(COc3cc[n+]([O-])c(C)c3)cc2C(=O)N(C)c2ccc(Cl)nc21
IC50 [8]: 4.31 µM
IC50 [2]: 0.1 µM
IC50 [4]: 0.21 µM

CCN1c2ncc(COc3ccccc3)cc2C(=O)N(C)c2ccc(Cl)nc21
Metabolism [1]: 171 pmol/min/mg
IC50 [6]: 0.05 µM
IC90 [7]: 0.113 µM
IC50 [8]: 0.64 µM
IC50 [2]: 0.11 µM
IC50 [3]: 0.02 µM
IC50 [4]: 0.06 µM
CC30 [5]: > 60 µM

CCN1c2ncc(COc3ccncc3)cc2C(=O)N(C)c2ccc(Cl)nc21
Metabolism [1]: 53 pmol/min/mg
IC50 [6]: 0.006 µM
IC90 [7]: 0.024 µM
IC50 [2]: 0.07 µM
IC50 [3]: 0.07 µM
IC50 [4]: 0.26 µM
CC30 [5]: > 120 µM

CCN1c2ncc(NCc3ccccc3)cc2C(=O)N(C)c2ccc(Cl)nc21
IC50 [2]: 0.26 µM
IC50 [4]: 0.39 µM
inhibition [10]: 0%

Cc1ccnc2c1NC(=O)c1cccnc1N2C1CC1 [NEVIRAPINE]
Metabolism [11]: 2 pmol/min/mg

CCN1c2ncc(COc3cccc(N(C)C)c3)cc2C(=O)N(C)c2ccc(Cl)nc21
inhibition [9]: 0%
inhibition [12]: 0%
inhibition [10]: 7%

CCN1c2ncc(OCc3ccccc3)cc2C(=O)N(C)c2ccc(Cl)nc21
inhibition [9]: 0%
inhibition [12]: 20%
inhibition [10]: 0%

CCN1c2ncc(N(C)C(=O)c3ccccc3)cc2C(=O)N(C)c2ccc(Cl)nc21
inhibition [9]: 22%
IC50 [2]: 0.21 µM
inhibition [10]: 13%

CCN1c2ncc(COc3cccc(C(=O)O)c3)cc2C(=O)N(C)c2ccc(Cl)nc21
IC50 [2]: 0.09 µM
IC50 [3]: 0.19 µM
IC50 [4]: 0.55 µM
CC30 [5]: 250 µM

CCN1c2ncc(COc3cc[n+]([O-])c(C(F)(F)F)c3)cc2C(=O)N(C)c2ccc(Cl)nc21
IC50 [2]: 0.12 µM
IC50 [4]: 0.27 µM

CCN1c2ncc(COc3cccc(OC)c3)cc2C(=O)N(C)c2ccc(Cl)nc21
IC50 [2]: 0.1 µM
IC50 [3]: 0.13 µM
IC50 [4]: 0.28 µM

CC(C)Nc1cccnc1N1CCN(C(=O)c2cc3cc(NS(C)(=O)=O)ccc3[nH]2)CC1 [DELAVIRDINE]
Metabolism [1]: 144 pmol/min/mg

CCN1c2ncc(COc3ccc(C(=O)OC)cc3)cc2C(=O)N(C)c2ccc(Cl)nc21
inhibition [9]: 33%
IC50 [2]: 0.8 µM
inhibition [10]: 0%

CCN1c2ncc(COc3cccc(F)c3)cc2C(=O)N(C)c2ccc(Cl)nc21
inhibition [9]: 11%
inhibition [12]: 24%
inhibition [10]: 16%

CCN1c2ncc(CN(C)c3ccccc3)cc2C(=O)N(C)c2ccc(Cl)nc21
inhibition [9]: 18%
IC50 [2]: 0.59 µM
inhibition [10]: 17%

CCN1c2ncc(COc3ccc4[nH]ccc4c3)cc2C(=O)N(C)c2ccc(Cl)nc21
IC50 [2]: 0.31 µM
IC50 [4]: 0.09 µM

CCN1c2ncc(COc3ccc(F)cc3)cc2C(=O)N(C)c2ccc(Cl)nc21
IC50 [2]: 0.28 µM
IC50 [4]: 1.66 µM

CCN1c2ncc(CSc3ncccn3)cc2C(=O)N(C)c2ccc(Cl)nc21
IC50 [2]: 0.03 µM
IC50 [4]: 0.06 µM

CCN1c2ncc(CNc3cccc(N)c3)cc2C(=O)N(C)c2ccc(Cl)nc21
IC50 [2]: 0.06 µM
IC50 [4]: 0.1 µM
CC30 [5]: 60 µM

CCN1c2ncc(COc3ccccc3C(=O)OC)cc2C(=O)N(C)c2ccc(Cl)nc21
inhibition [9]: 2%
inhibition [12]: 25%
inhibition [10]: 2%

CCN1c2ncc(COc3ccnc(C(F)(F)F)c3)cc2C(=O)N(C)c2ccc(Cl)nc21
Metabolism [1]: 206 pmol/min/mg
IC50 [2]: 0.04 µM
IC50 [4]: 0.07 µM

CCN1c2ncc(COc3cc[n+]([O-])cc3)cc2C(=O)N(C)c2cccnc21
IC50 [2]: 0.21 µM
IC50 [4]: 1.34 µM

CCN1c2ncc(COc3ccccc3O)cc2C(=O)N(C)c2ccc(Cl)nc21
IC50 [2]: 0.1 µM
IC50 [4]: 0.35 µM

CCN1c2ncc(COc3cccc([N+](=O)[O-])c3)cc2C(=O)N(C)c2ccc(Cl)nc21
IC50 [2]: 0.17 µM
IC50 [4]: 0.35 µM

CCN1c2ncc(CCc3ccncc3)cc2C(=O)N(C)c2ccc(Cl)nc21
Metabolism [1]: 145 pmol/min/mg
IC50 [8]: 1.85 µM
IC50 [2]: 0.08 µM
IC50 [3]: 0.12 µM
IC50 [4]: 0.12 µM

CCN1c2ncc(C(=O)N(C)c3ccccc3)cc2C(=O)N(C)c2ccc(Cl)nc21
inhibition [9]: 20%
inhibition [12]: 15%
inhibition [13]: 46%

CCN1c2ncc(COc3cccc(C(=O)OC)c3)cc2C(=O)N(C)c2ccc(Cl)nc21
inhibition [9]: 23%
IC50 [2]: 0.7 µM
inhibition [10]: 11%
